From article PMC5857911, “Inositol pyrophosphate synthesis by diphosphoinositol pentakisphosphate kinase-1 is regulated by phosphatidylinositol(4,5)bisphosphate” (Bioscience Reports, 2018)
Substitutions are numbered along the chain they refer to. pIC50: −log10 of the molar value.

How the values were obtained:
Type in all cases: biochemical
PPIP5K1 [1] = target: T1, PPIP5K1 (Homo sapiens, UniProt Q6PFW1, R399A); assay: kinase assay of purified phosphatase-compromised mutant, […] h, HPLC
T1 construct: full-length human PPIP5K1
T1 sequence (Q6PFW1 1-1433 R399A): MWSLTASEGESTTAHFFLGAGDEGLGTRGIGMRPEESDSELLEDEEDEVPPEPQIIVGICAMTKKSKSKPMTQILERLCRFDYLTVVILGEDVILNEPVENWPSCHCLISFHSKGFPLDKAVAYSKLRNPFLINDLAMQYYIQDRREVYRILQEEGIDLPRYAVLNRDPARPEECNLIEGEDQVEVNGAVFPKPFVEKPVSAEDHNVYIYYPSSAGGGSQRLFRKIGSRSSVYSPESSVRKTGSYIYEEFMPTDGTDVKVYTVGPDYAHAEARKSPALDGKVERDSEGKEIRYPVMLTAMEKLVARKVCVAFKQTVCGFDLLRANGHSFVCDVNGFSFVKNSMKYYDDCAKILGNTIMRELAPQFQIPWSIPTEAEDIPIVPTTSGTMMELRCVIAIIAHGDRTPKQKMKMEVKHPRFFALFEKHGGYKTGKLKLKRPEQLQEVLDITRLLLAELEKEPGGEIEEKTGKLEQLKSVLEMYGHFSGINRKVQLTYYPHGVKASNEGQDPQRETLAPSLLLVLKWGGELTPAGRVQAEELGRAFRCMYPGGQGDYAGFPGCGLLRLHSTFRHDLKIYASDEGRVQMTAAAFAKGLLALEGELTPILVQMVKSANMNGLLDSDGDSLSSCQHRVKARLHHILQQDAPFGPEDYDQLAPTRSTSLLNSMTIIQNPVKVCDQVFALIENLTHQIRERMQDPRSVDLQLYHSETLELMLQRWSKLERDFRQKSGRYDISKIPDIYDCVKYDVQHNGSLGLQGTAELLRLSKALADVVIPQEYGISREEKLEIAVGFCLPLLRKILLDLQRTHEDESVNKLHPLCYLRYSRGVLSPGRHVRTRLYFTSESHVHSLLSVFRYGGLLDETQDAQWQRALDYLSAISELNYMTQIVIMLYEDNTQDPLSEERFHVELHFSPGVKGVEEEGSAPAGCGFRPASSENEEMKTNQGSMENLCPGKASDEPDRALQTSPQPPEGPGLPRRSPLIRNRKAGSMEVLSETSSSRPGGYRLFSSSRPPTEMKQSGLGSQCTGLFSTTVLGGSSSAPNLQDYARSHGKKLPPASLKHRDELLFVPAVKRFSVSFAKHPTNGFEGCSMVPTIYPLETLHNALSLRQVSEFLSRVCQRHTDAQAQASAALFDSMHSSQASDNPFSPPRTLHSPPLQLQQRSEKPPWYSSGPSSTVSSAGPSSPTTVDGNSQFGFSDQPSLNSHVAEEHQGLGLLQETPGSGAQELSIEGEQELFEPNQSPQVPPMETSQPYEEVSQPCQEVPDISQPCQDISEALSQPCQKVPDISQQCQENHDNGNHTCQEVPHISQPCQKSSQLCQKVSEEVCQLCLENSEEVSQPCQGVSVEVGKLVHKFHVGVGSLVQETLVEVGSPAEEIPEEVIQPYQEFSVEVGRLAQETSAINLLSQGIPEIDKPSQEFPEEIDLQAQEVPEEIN

PPIP5K1 [2] = target: T2, PPIP5K1 (Homo sapiens, UniProt Q6PFW1); assay: kinase assay of purified recombinant enzyme with […]-[3H]InsP7, HPLC, first-order conditions
T2 construct: full-length human PPIP5K1
T2 sequence (Q6PFW1 1-1433): T1 sequence (Q6PFW1 1-1433 R399A) with A399R

PPIP5K1 [3] = target: T2, PPIP5K1; assay: InsP8 phosphatase assay with [3H]InsP8, HPLC, dose-response
PPIP5K1 [4] = target: T2, PPIP5K1; assay: phosphatase assay of purified recombinant enzyme, […] InsP8 with [3H]InsP8, HPLC

Row | Compound | pIC50 (PPIP5K1 [3]) | other results
1 | O=P(O)(O)O[C@H]1[C@@H](OP(=O)(O)O)[C@H](OP(=O)(O)O)[C@@H](OP(=O)(O)OP(=O)(O)O)[C@H](OP(=O)(O)O)[C@H]1OP(=O)(O)O [5-InsP7] |  | % / ng protein (PPIP5K1 [1]): 6.9 ± 0.01 % / ng protein; kinase assay of purified recombinant enzyme with 5-[3H]InsP7, HPLC, first-order (PPIP5K1 [2]): 0.07 min⁻¹
2 | CCCCCCCC(=O)OC[C@H](COP(=O)(O)O[C@H]1[C@H](O)[C@@H](O)[C@H](OP(=O)(O)O)[C@@H](OP(=O)(O)O)[C@H]1O)OC(=O)CCCCCCC [C8-PtdIns(3,4)P2] | ~4.60 | 
3 | CCCCCCCC(=O)OC[C@H](COP(=O)(O)O[C@H]1[C@H](O)[C@@H](OP(=O)(O)O)[C@H](OP(=O)(O)O)[C@@H](OP(=O)(O)O)[C@H]1O)OC(=O)CCCCCCC [C8-PtdIns(3,4,5)P3] | ~4.46 | 
4 | CCCCCCCC(=O)OC[C@H](COP(=O)(O)O[C@@H]1[C@H](O)[C@H](O)[C@@H](OP(=O)(O)O)[C@H](OP(=O)(O)O)[C@H]1O)OC(=O)CCCCCCC [C8-PtdIns(4,5)P2] | ~4.40 | 
5 | O=P(O)(O)O[C@@H]1[C@@H](OP(=O)(O)O)[C@H](OP(=O)(O)OP(=O)(O)O)[C@@H](OP(=O)(O)O)[C@H](OP(=O)(O)OP(=O)(O)O)[C@@H]1OP(=O)(O)O [InsP8] |  | phosphatase assay of purified recombinant enzyme, 1 μM InsP8 with [3H]InsP8, HPL (PPIP5K1 [4]): 7 ± 1 nmol/mg protein/min
